Key:
Type in all cases: binding
Set-up in all cases: KINOMEscan: ABL1(F317L)-phosphorylated / KINOMEscan: ABL1(H396P)-nonphosphorylated / KINOMEscan: ABL1(H396P)-phosphorylated / KINOMEscan: ABL1(M351T)-phosphorylated / KINOMEscan: ABL1(T315I)-phosphorylated / KINOMEscan: ABL1-nonphosphorylated / KINOMEscan: ABL1-phosphorylated / KINOMEscan: ACVR2A / KINOMEscan: ACVR2B / KINOMEscan: ADCK3 / KINOMEscan: ADCK4 / KINOMEscan: AKT1 / KINOMEscan: AKT3 / KINOMEscan: ALK / KINOMEscan: ARK5 / KINOMEscan: AURKA / KINOMEscan: AURKC / KINOMEscan: BIKE / KINOMEscan: BMPR1A / KINOMEscan: BMPR1B / KINOMEscan: BMX / KINOMEscan: BRK / KINOMEscan: BRSK1 / KINOMEscan: BRSK2 / KINOMEscan: CAMK1 / KINOMEscan: CAMK1D / KINOMEscan: CAMK1G / KINOMEscan: CAMK2A / KINOMEscan: CAMK2B / KINOMEscan: AAK1 / KINOMEscan: CAMK2D / KINOMEscan: CAMK2G / KINOMEscan: ABL1(F317I)-nonphosphorylated / KINOMEscan: ABL1(F317I)-phosphorylated / KINOMEscan: ABL1(F317L)-nonphosphorylated: unit: % Ctrl
panel of 442 kinases [1] = molecular target: T1, panel of 442 kinases (Homo sapiens, UniProt P00519, H396P); settings: Compound Concentration 10 µM
T1 construct: purchased KINOMEscan
Source text: (§1) We assessed the selectivity of members of this scaffold using the KINOMEscan methodology across a near comprehensive panel of 442 kinases [[18,27]].

panel of 442 kinases [2] = molecular target: T2, panel of 442 kinases (Homo sapiens, UniProt Q9NSY1); settings: Compound Concentration 10 µM
T2 construct: purchased KINOMEscan
Source text: as §1

panel of 442 kinases [3] = molecular target: T3, panel of 442 kinases (Homo sapiens, UniProt P12931); settings: kinase SRC; compound concentration 10 µM
T3 construct: purchased KINOMEscan
Source text: as §1

panel of 442 kinases [4] = molecular target: T4, panel of 442 kinases (Homo sapiens, UniProt Q06187); settings: Compound Concentration 10 µM
T4 construct: purchased KINOMEscan
Source text: as §1

T2 sequence (Q9NSY1 whole entry): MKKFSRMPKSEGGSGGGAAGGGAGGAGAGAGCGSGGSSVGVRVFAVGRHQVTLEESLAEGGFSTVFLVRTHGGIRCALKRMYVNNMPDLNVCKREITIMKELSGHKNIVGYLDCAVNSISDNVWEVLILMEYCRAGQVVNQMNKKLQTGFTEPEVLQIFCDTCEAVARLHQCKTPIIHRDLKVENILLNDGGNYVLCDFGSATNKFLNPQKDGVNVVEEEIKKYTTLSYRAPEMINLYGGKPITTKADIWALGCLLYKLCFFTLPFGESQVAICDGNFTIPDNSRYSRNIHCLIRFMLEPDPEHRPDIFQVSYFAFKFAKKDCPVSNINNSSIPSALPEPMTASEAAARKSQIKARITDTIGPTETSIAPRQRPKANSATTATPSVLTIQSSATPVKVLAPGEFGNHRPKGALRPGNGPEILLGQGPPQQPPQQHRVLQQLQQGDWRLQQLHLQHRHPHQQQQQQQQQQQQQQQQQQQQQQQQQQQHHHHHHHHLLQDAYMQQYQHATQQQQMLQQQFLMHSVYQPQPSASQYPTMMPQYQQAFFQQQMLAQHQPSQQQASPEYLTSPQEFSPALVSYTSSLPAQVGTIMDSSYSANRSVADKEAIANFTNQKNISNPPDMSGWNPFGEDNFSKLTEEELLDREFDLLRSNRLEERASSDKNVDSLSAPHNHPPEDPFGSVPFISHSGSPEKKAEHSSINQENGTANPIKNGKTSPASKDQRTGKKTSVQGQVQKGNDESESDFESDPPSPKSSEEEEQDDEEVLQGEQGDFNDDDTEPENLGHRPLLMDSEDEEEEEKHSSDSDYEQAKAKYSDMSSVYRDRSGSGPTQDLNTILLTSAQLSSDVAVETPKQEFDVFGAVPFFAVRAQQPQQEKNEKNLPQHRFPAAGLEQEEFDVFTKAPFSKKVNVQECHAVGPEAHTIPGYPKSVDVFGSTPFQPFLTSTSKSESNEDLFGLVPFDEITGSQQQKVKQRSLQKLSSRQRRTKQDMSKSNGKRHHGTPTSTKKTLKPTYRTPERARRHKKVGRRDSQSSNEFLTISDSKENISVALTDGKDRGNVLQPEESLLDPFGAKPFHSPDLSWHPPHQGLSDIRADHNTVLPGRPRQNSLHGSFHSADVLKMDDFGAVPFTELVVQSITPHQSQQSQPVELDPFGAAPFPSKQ
T3 sequence (P12931 whole entry): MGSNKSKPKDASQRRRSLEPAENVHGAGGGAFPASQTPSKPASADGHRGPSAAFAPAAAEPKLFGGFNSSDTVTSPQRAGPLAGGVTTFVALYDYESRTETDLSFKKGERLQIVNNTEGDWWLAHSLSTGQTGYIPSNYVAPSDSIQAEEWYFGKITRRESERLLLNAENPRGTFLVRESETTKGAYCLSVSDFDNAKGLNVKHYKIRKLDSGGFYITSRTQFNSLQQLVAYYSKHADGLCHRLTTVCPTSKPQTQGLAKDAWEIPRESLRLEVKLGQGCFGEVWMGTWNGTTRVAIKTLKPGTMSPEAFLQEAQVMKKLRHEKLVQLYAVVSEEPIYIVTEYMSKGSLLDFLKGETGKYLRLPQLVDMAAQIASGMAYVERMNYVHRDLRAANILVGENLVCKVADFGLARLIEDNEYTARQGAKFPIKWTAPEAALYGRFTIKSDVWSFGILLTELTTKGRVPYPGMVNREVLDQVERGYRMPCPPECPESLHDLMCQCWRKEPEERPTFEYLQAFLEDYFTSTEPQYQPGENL
T4 sequence (Q06187 whole entry): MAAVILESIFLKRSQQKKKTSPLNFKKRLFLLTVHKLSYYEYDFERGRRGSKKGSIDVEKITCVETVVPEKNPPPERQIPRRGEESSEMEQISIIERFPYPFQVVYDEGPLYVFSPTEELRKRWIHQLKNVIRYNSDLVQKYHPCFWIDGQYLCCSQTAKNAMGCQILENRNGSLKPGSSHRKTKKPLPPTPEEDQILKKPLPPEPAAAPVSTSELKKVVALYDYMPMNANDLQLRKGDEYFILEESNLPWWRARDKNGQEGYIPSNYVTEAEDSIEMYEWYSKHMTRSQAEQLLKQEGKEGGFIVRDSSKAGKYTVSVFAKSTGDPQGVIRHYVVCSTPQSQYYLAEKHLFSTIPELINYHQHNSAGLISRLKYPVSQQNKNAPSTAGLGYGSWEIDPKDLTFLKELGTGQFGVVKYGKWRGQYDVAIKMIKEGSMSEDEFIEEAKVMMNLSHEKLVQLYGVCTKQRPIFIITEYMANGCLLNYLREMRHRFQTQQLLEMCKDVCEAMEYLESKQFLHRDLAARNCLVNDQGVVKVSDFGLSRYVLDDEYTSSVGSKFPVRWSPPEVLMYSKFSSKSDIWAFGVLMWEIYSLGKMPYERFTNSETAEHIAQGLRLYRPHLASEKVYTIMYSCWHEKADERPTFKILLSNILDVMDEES

Question: `COc1cc(C(=O)N2CCC(N3CCN(C)CC3)CC2)ccc1Nc1ncc2c(n1)N1CCc3cccc(c31)C(=O)N2C` [Compound 24] was tested. Which “KINOMEscan: ABL1(H396P)-nonphosphorylated” value (panel of 442 kinases [1]) did it give?
Answer: The value was 34.

Question: What about the “KINOMEscan: ABL1(H396P)-phosphorylated” value (panel of 442 kinases [1]) of the same compound?
Answer: The value was 100.

Question: And the “KINOMEscan: BIKE” value (panel of 442 kinases [2])?
Answer: The value was 73.

Question: And the “% Ctrl, SRC” value (panel of 442 kinases [3])?
Answer: Its value is 95 % Ctrl.

Question: Which results are given for `CCOc1cc(C(=O)N2CCC(N3CCN(C)CC3)CC2)ccc1Nc1ncc2c(n1)N(C1CCCC1)c1ccccc1C(=O)N2C` [Compound 26]?
Answer: KINOMEscan: ABL1(H396P)-nonphosphorylated (panel of 442 kinases [1]): 86; KINOMEscan: ABL1(H396P)-phosphorylated (panel of 442 kinases [1]): 100; KINOMEscan: BIKE (panel of 442 kinases [2]): 100; % Ctrl, SRC (panel of 442 kinases [3]): 100 % Ctrl; KINOMEscan: BTK (panel of 442 kinases [4]): 100

Question: How did the “KINOMEscan: ABL1(H396P)-nonphosphorylated” value (panel of 442 kinases [1]) turn out when `COc1cc(C(=O)N2CCC(N3CCN(C)CC3)CC2)ccc1Nc1ncc2c(n1)N(C1CCCC1)c1ccccc1C(=O)N2C` [Compound 25, 11-cyclopentyl-2-((2-methoxy-4-(4-(4-methylpiperazin-1-yl)piperidine-1-carbonyl)phenyl)amino)-5-methyl-5H-benzo[e]pyrimido[5,4-b][1,4]diazepin-6(11H)-one] was run?
Answer: The value was 47.

Question: What about the “KINOMEscan: ABL1(H396P)-phosphorylated” value (panel of 442 kinases [1]) of the same compound?
Answer: Its value is 100.

Question: What about the “KINOMEscan: BIKE” value (panel of 442 kinases [2]) of the same compound?
Answer: Its value is 93.

Question: And the “% Ctrl, SRC” value (panel of 442 kinases [3])?
Answer: Its value is 90 % Ctrl.

Question: What about the “KINOMEscan: BTK” value (panel of 442 kinases [4]) of the same compound?
Answer: The value was 98.

Question: Which “KINOMEscan: ABL1(H396P)-nonphosphorylated” value (panel of 442 kinases [1]) does the source give for `COc1cc(C(=O)N2CCC(N3CCN(C)CC3)CC2)ccc1Nc1ncc2c(n1)N(C)c1ccccc1C(=O)N2C` [15 (LRRK2-IN-1)] here?
Answer: The value was 100.

Question: And the “KINOMEscan: ABL1(H396P)-phosphorylated” value (panel of 442 kinases [1])?
Answer: Its value is 100.

Question: And the “KINOMEscan: BIKE” value (panel of 442 kinases [2])?
Answer: The value was 100.

Question: And the “% Ctrl, SRC” value (panel of 442 kinases [3])?
Answer: The value was 100 % Ctrl.

Question: What about the “KINOMEscan: BTK” value (panel of 442 kinases [4]) of the same compound?
Answer: The value was 100.

Source: paper PMC3914206
